Test results published in patent US10287269B2, “Pyrazolyl pyrimidinone compounds as PDE2 inhibitors” (Merck Sharp & Dohme Corp., priority 2015, dated 2019).

Molecular target: T1, Rhesus PDE2A3 (Macaca mulatta, UniProt B3VTJ2)
T1 construct: made in house; host or cells: AD293 cells, transient transfection, pcDNA3.3-TOPO; lysate supernatant used as enzyme
T1 sequence (B3VTJ2 1-941): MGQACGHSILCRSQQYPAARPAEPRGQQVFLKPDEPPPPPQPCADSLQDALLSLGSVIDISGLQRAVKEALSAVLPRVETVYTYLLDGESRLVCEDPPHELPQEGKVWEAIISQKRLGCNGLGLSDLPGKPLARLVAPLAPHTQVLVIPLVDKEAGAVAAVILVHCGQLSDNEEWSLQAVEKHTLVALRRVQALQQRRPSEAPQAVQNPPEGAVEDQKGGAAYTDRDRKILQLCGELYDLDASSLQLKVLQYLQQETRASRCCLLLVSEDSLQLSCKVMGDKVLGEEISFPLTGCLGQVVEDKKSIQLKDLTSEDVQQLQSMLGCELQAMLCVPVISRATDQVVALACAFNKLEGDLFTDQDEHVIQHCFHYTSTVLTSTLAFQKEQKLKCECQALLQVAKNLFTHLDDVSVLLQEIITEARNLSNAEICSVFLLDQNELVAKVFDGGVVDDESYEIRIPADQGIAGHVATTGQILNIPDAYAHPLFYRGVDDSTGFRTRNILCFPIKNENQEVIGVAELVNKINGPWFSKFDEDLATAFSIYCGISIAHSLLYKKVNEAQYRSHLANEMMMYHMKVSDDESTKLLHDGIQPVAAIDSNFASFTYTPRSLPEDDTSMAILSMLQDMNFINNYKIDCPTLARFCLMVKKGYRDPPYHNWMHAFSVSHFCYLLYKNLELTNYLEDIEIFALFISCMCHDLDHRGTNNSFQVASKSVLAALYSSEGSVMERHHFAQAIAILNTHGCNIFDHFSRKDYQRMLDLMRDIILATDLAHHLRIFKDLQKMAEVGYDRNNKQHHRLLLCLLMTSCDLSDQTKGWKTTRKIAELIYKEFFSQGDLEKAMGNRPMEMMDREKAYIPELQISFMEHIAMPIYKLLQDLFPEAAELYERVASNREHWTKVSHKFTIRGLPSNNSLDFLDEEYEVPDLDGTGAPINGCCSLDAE
Experiment: PDE2 fluorescence polarization (IMAP FP) inhibition assay, rhesus enzyme
Type: biochemical, rhesus macaque
Details: Lab A; read-out: Rhesus PDE2 Ki (nM) Lab A
Protocol: The activity of the compounds in accordance with the present invention as PDE2 inhibitors may be readily determined using a fluorescence polarization (FP) methodology (Huang, W., et al., J. Biomol Screen, 2002, 7: 215).
In a typical experiment the PDE2 inhibitory activity of the compounds of the present invention was determined in accordance with the following experimental method. Rhesus PDE2A3 was amplified from rhesus macaque brain cDNA (Biochain Institute, Hayward, Calif.) using primers based on human PDE2A sequence (accession NM_002599.3) where the forward primer containing a Kozak consensus was 5′-[…]-3′ and the reverse primer was 5′-[…]-3′. Amplification with Easy-A High-Fidelity PCR cloning enzyme (Stratagene, La Jolla, Calif.) was 95° C. for 2 minutes followed by thirty three cycles of 95° C. for 40 seconds, 52° C. for 30 seconds, and 72° C. for 2 minutes 48 seconds. Final extension was 72° C. for 7 minutes. The PCR product was TA cloned into pcDNA3.3-TOPO (Invitrogen, Carlsbad, Calif.) according to standard protocol. A consensus sequence was developed from multiple clones and then deposited into GenBank (EU812167). AD293 cells (Stratagene, La Jolla, Calif.) with 70-80% confluency were transiently transfected with rhesus PDE2A3/pcDNA3.3-TOPO using Lipofectamine 2000 according to manufacturer specifications (Invitrogen, Carlsbad, Calif.). Cells were harvested 48 hours post-transfection and lysed by sonication (setting 3, 10×5 sec pulses) in a buffer containing 20 mM HEPES pH 7.4, 1 mM EDTA and Complete Protease Inhibitor Cocktail Tablets (Roche, Indianapolis, Ind.). Lysate was collected by centrifugation at 75,000×g for 20 minutes at 4° C. and supernatant utilized for evaluation of PDE2 activity. The fluorescence polarization assay for cyclic nucleotide phosphodiesterases was performed using an IMAP® FP kit supplied by Molecular Devices, Sunnyvale, Calif. (product # R8139). […] Assays were performed at room temperature in 384-well microtiter plates with an incubation volume of 20.2 μL. Solutions of test compounds were prepared in DMSO and serially diluted with DMSO to yield 8 μL of each of 10 solutions differing by 3-fold in concentration, at 32 serial dilutions per plate. […] 0% of inhibition is determined by using DMSO (1% final concentrations).
A Labcyte Echo 555 (Labcyte, Sunnyvale, Calif.) is used to dispense 200 nL from each well of the titration plate to the 384 well assay plate. Ten microliters of a solution of enzyme (1/2000 final dilution from aliquots; sufficient to produce 20% substrate conversion) was added to the assay plate. Next 10 uL of a separate solution of the substrate FAM-labeled cAMP (50 nM final concentration product # R7506 from Molecular Devices) and the activator cGMP (1 uM final concentration), prepared in the assay buffer (10 mM Tris HCl, pH 7.2, 10 mM MgCl2, 0.05% NaN3 0.01% Tween-20, and 1 mM DTT) was added to the assay plate and shaken to mix. The reaction is allowed to proceed at room temperature for 60 minutes. A binding solution is then made from the kit components, comprised of 80% Solution A, 20% Solution B and binding reagent at a volume of 1/600 the total binding solution. The enzymatic reaction is stopped by addition of 60 μl, of the binding solution to each well of the assay plates and the plates are sealed and shaken for 30 seconds. The plate was incubated at room temperature for at least one hour prior to determining the fluorescence polarization (FP). The parallel and perpendicular fluorescence of each well of the plate was measured using a Tecan Genios Pro plate reader (Tecan, Switzerland) or Perkin Elmer EnVision™ plate reader (Waltham, Mass.). Fluorescence polarization (mP) was calculated from the parallel (S) and perpendicular (P) fluorescence of each sample well and the analogous values for the median control well, containing only substrate (So and Po), using the following equation: Polarization (mP)=1000*(S/So−P/Po)/(S/So+P/Po).

Ki | Structure (SMILES)
19300 nM | Cc1nc(-n2cc(CN3CCC(C(F)(F)F)CC3)cn2)cc(=O)[nH]1 [Example 32, 2-Methyl-6-(4-((4-(trifluoromethyl)piperidin-1-yl)methyl)-1H-pyrazol-1-yl)pyrimidin-4(3H)-one]
30100 nM | Cc1nc(-c2cnn(C(C)C3CCOCC3)c2)cc(=O)[nH]1 (stereo not drawn) [Example 68, 2-methyl-6-(1-(1-(tetrahydro-2H-pyran-4-yl)ethyl)-1H-pyrazol-4-yl)pyrimidin-4(3H)-one]

Same assay, conditions: Lab B; read-out: Rhesus PDE2 Ki (nM) Lab B

Structure (SMILES) | Ki
Cc1nc(-n2cc(CN3CCC(C(F)(F)F)CC3)cn2)cc(=O)[nH]1 [Example 32, 2-Methyl-6-(4-((4-(trifluoromethyl)piperidin-1-yl)methyl)-1H-pyrazol-1-yl)pyrimidin-4(3H)-one] | 49300 nM
Cc1nc(-n2cc(C(C)c3ccc(C4CCC4)cc3)cn2)cc(=O)[nH]1 (stereo not drawn) [Example 38, 6-(4-(1-(4-cyclobutylphenyl)ethyl)-1H-pyrazol-1-yl)-2-methylpyrimidin-4(3H)-one] | 303 nM
COCCc1ccc(C(C)c2cnn(-c3cc(=O)[nH]c(C)n3)c2)cc1 (stereo not drawn) [Example 41, 6-(4-(1-(4-(2-methoxyethyl)phenyl)ethyl)-1H-pyrazol-1-yl)-2-methylpyrimidin-4(3H)-one] | 7300 nM
Cc1nc(-n2cc(C(C)c3ccc4c(c3)CCOC4)cn2)cc(=O)[nH]1 (stereo not drawn) [Example 42, 6-(4-(1-(isochroman-6-yl)ethyl)-1H-pyrazol-1-yl)-2-methylpyrimidin-4(3H)-one] | 2620 nM
CCCc1ccc(C(C)c2cnn(-c3cc(=O)[nH]c(C)n3)c2)cc1 (stereo not drawn) [Example 43, 2-methyl-6-(4-(1-(4-propylphenyl)ethyl)-1H-pyrazol-1-yl)pyrimidin-4(3H)-one] | 313 nM
Cc1nc(-n2cc(C(C)c3ccc(C(C)(C)C)cc3)cn2)cc(=O)[nH]1 (stereo not drawn) [Example 45, 6-(4-(1-(4-(tert-butyl)phenyl)ethyl)-1H-pyrazol-1-yl)-2-methylpyrimidin-4(3H)-one] | 411 nM
Cc1nc(-n2cc(C(C)c3ccc4c(c3)COCC4)cn2)cc(=O)[nH]1 (stereo not drawn) [Example 46, 6-(4-(1-(isochroman-7-yl)ethyl)-1H-pyrazol-1-yl)-2-methylpyrimidin-4(3H)-one] | 2480 nM
Cc1nc(-n2cc(C(C)c3ccc4c(c3)OCC4(C)C)cn2)cc(=O)[nH]1 (stereo not drawn) [Example 47, 6-(4-(1-(3,3-dimethyl-2,3-dihydrobenzofuran-6-yl)ethyl)-1H-pyrazol-1-yl)-2-methylpyrimidin-4(3H)-one] | 1240 nM
Cc1nc(-n2cc(C(C)c3ccncc3)cn2)cc(=O)[nH]1 (stereo not drawn) [Example 54, 2-methyl-6-[4-(1-pyridin-4-ylethyl)-1H-pyrazol-1-yl]pyrimidin-4(3H)-one] | 18200 nM
Cc1nc(-n2cc(C(C)c3ccc(OC(F)(F)F)cc3C)cn2)cc(=O)[nH]1 (stereo not drawn) [Example 55, 2-methyl-6-(4-(1-(2-methyl-4-(trifluoromethoxy)phenyl)ethyl)-1H-pyrazol-1-yl)pyrimidin-4(3H)-one] | 467 nM

Now from value to compound:

Ki | Structure (SMILES)
40100 nM | Cc1nc(-c2cnn(C(C)C3CCOCC3)c2)cc(=O)[nH]1 (stereo not drawn) [Example 68, 2-methyl-6-(1-(1-(tetrahydro-2H-pyran-4-yl)ethyl)-1H-pyrazol-4-yl)pyrimidin-4(3H)-one]
6380 nM | Cc1nc(-c2cnn(C(C)c3cccc(C(F)(F)F)c3)c2)cc(=O)[nH]1 (stereo not drawn) [Example 73, 2-methyl-6-(1-(1-(3-(trifluoromethyl)phenyl)ethyl)-1H-pyrazol-4-yl)pyrimidin-4(3H)-one]
11000 nM | Cc1nc(-c2ccnn2C(C)c2ccc(C(F)(F)F)cc2)cc(=O)[nH]1 (stereo not drawn) [Example 74, 2-methyl-6-(1-(1-(4-(trifluoromethyl)phenyl)ethyl)-1H-pyrazol-5-yl)pyrimidin-4(3H)-one]
3250 nM | Cc1nc(-c2ccn(C(C)c3ccc(OC(F)(F)F)cc3)n2)cc(=O)[nH]1 (stereo not drawn) [Example 75, 2-methyl-6-(1-(1-(4-(trifluoromethoxy)phenyl)ethyl)-1H-pyrazol-3-yl)pyrimidin-4(3H)-one]
15900 nM | Cc1nc(-c2ccnn2C(C)c2ccc(OC(F)(F)F)cc2)cc(=O)[nH]1 (stereo not drawn) [Example 76, 2-methyl-6-(1-(1-(4-(trifluoromethoxy)phenyl)ethyl)-1H-pyrazol-5-yl)pyrimidin-4(3H)-one]
727 nM | Cc1nc(-c2c(C)nn(C(C)c3ccc(C(F)(F)F)cc3)c2C)cc(=O)[nH]1 (stereo not drawn) [Example 79, 6-(3,5-dimethyl-1-(1-(4-(trifluoromethyl)phenyl)ethyl)-1H-pyrazol-4-yl)-2-methylpyrimidin-4(3H)-one]
